Values quoted from earlier work as cited in patent publication US10947168B2, “Solvent systems for dicyandiamide and/or alkyl thiophosphoric triamide and use in agricultural applications” (RHODIA OPERATIONS, priority 2014, dated 2021).

N#CNC(=N)N [Dicyandiamide]
solubility in water: about 41 g/l
